The values that follow come from patent publication EP4635950A1, “NOVEL CRYSTAL FORM OF GLP-1 RECEPTOR AGONIST, METHOD FOR PREPARING SAME, PHARMACEUTICAL COMPOSITION THEREOF, AND USE THEREOF” (Hangzhou Zhongmeihuadong Pharmaceutical Co., Ltd., priority 2022, dated 2024).

Holding throughout (type): physicochemical
A short description of data set [1]: Crystal form change on heating in the DSC test.
Data set [2] in a line: Equilibrium solubility, 24 hours at 37°C in 4 media, with XRPD of residual solid. Particulars: for solubility at 24 h: 37 °C, thermodynamic from solid, read-out: Solubility after 24 h; for Crystal Form: XRPD. The method, then:
After 24 hours, samples were taken and centrifuged for separation. The obtained solids were tested by XRPD, and the supernatants were filtered for solubility testing.

A short description of data set [3]: Hygroscopicity by dynamic vapor sorption (DVS) at 25°C.
A short description of data set [4]: Solid-state stability under long-term and accelerated conditions (HPLC purity, crystal form). Particulars: for Purity (% Area) / purity decrease: 10 days. The text has this:
[table] […] Table E-3: Results of Solid-State Stability Determination

The nature of data set [5]: High-temperature stability at 60°C (HPLC purity, crystal form). The note with it: for Purity (% Area) / purity decrease: 60°C. The text has this:
[table] […] Table E-4: Results of High-Temperature Stability Determination

Data set [6] can be described thus: High-humidity stability at 90% RH (HPLC purity, crystal form). The note with it: for Purity (% Area) / purity decrease: 90% RH. The text has this:
[table] […] Table E-5: Results of High-Humidity Stability Determination

Data set [7] can be described thus: Pressure stability at 1000 Mpa for 5 minutes (HPLC purity, crystal form). The text has this:
[table] […] Table E-6: Results of Pressure Stability Determination

The nature of data set [8]: Crystal form stability on drying or sealed storage. The text has this:
The 4 metastable crystal forms described in Example 4 had lower crystal form stability than each crystal form described in Example 3.

The nature of data set [9]: Suspension competition test of Crystal Form A and Crystal Form G. The note with it: Crystal Form A and Crystal Form G in EtOH and a mixture of MeOH and water, room temperature and 50°C.
The mark [10] stands for this setting: heated to 120 °C for 10 minutes.

In brackets after ≈: the same amount, converted by molar mass. Entries after “also recorded” stand apart in the source; their conditions may differ. Read-outs that look alike come from different tables or passages of the source.

`O=C(O)c1ccc2nc(CN3CCC(c4cccc(OCc5ccc(C6COC6)cc5F)n4)CC3)n(C[C@@H]3CCO3)c2c1` [Crystal Form E, (S)-2-((4-(6-((2-fluoro-4-(oxetan-3-yl)benzyl)oxy)pyridin-2-yl)piperidin-1-yl)methyl)-1-(oxetan-2-ylmethyl)-1H-benzo[d]imidazole-6-carboxylic acid]: the “crystal form change on heating” value in data set [1] (setting [10]) was “converts into an amorphous form”.
Same read-out and setting: the same measure for `O=C(O)c1ccc2nc(CN3CCC(c4cccc(OCc5ccc(C6COC6)cc5F)n4)CC3)n(C[C@@H]3CCO3)c2c1` [Crystal Form Ix, (S)-2-((4-(6-((2-fluoro-4-(oxetan-3-yl)benzyl)oxy)pyridin-2-yl)piperidin-1-yl)methyl)-1-(oxetan-2-ylmethyl)-1H-benzo[d]imidazole-6-carboxylic acid]: “converts into an amorphous form”.
A word on the solubility: it is the concentration that dissolves in the medium under given conditions. On to `O=C(O)c1ccc2nc(CN3CCC(c4cccc(OCc5ccc(C6COC6)cc5F)n4)CC3)n(C[C@@H]3CCO3)c2c1` [Crystal Form A, (S)-2-((4-(6-((2-fluoro-4-(oxetan-3-yl)benzyl)oxy)pyridin-2-yl)piperidin-1-yl)methyl)-1-(oxetan-2-ylmethyl)-1H-benzo[d]imidazole-6-carboxylic acid], for which the “Whether the Crystal Form Changed” value in [2] (24 h in FaSSGF) is reported as “YES”. For the same compound, the “Solubility after 24 h” value in [2] (FaSSGF) turned out to be 200 µg/mL (≈ 341 µM). In addition, the solubility at 24 h in [2] (FaSSIF (fasted-state simulated intestinal fluid), fassif, FaSSIF) was 50 µg/mL (≈ 85.2 µM); in data set [2] (FeSSIF (fed-state simulated intestinal fluid), fessif, FeSSIF), 320 µg/mL (≈ 545 µM); in [2] (purified water, water, H2O), below 100 µg/mL. Further, the “Crystal Form” value in data set [2] (solid after 24 h in FaSSGF) is reported as “a hydrochloride salt was formed”; in data set [2] (solid after 24 h in FaSSIF), “Crystal Form A”; in data set [2] (solid after 24 h in FeSSIF), “Crystal Form A”; in data set [2] (solid after 24 h in H2O), “Crystal Form A”. In addition, in data set [3], the “Sample Weight Change at 80% RH (%)” value is recorded as 0.89%. The “Purity (% Area)” value in data set [4] (25°C/60%RH) was 97.50 % Area; in [4] (40°C/75%RH), 97.33 % Area; in data set [5] (1 day), 98.00 % Area; in [5] (10 days) it was 96.98 % Area; in data set [6] (1 Day), 97.77 % Area; in data set [6] (10 days) it was 97.07 % Area. The “Purity (% Area)” value in data set [7] (1000 Mpa, 5 min) was determined as 97.44 % Area. Further, the purity decrease result in [4] (accelerated conditions (40°C/75% RH)) is given as “about 0.8%”; in data set [4] (long-term conditions (25°C/60% RH)) it was “about 0.6%”; in data set [5] (1 day), “about 0.1%”; in data set [5] (10 days) it was “about 1.1%”; in [6] (1 day) it was “about 0.3%”; in [6] (10 days), “about 1.0%”. The purity decrease result in data set [7] (1000 Mpa, 5 min) was “about 0.7%”. Besides, the crystal form change result in [4] (before and after testing, long-term and accelerated conditions) is on record as “no crystal form change was observed”. For the same compound, the “Initial Purity (% Area)” value turned out to be 98.11 % Area in data set [4] (initial, before storage); 98.11 % Area in data set [5] (initial, before storage); 98.11 % Area in data set [6] (initial, before storage); 98.11 % Area in [7] (initial, before pressing). Besides, in data set [8] (dried at 50°C for 3 hours), the “crystal form change after drying” value was “no crystal form change is observed”. For the same compound, the “outcome of suspension competition test” value in [9] is “transforms into Crystal Form G”.
As for `O=C(O)c1ccc2nc(CN3CCC(c4cccc(OCc5ccc(C6COC6)cc5F)n4)CC3)n(C[C@@H]3CCO3)c2c1` [Crystal Form M, (S)-2-((4-(6-((2-fluoro-4-(oxetan-3-yl)benzyl)oxy)pyridin-2-yl)piperidin-1-yl)methyl)-1-(oxetan-2-ylmethyl)-1H-benzo[d]imidazole-6-carboxylic acid], the “crystal form change on heating” value in data set [1] (heated to 105 °C for 10 minutes) is “transforms into an amorphous form”.
`O=C(O)c1ccc2nc(CN3CCC(c4cccc(OCc5ccc(C6COC6)cc5F)n4)CC3)n(C[C@@H]3CCO3)c2c1` [Crystal Form N, (S)-2-((4-(6-((2-fluoro-4-(oxetan-3-yl)benzyl)oxy)pyridin-2-yl)piperidin-1-yl)methyl)-1-(oxetan-2-ylmethyl)-1H-benzo[d]imidazole-6-carboxylic acid]: in data set [1] (setting [10]), the “crystal form change on heating” value was “transforms into an amorphous form”.
`O=C(O)c1ccc2nc(CN3CCC(c4cccc(OCc5ccc(C6COC6)cc5F)n4)CC3)n(C[C@@H]3CCO3)c2c1` [Crystal Form C, (S)-2-((4-(6-((2-fluoro-4-(oxetan-3-yl)benzyl)oxy)pyridin-2-yl)piperidin-1-yl)methyl)-1-(oxetan-2-ylmethyl)-1H-benzo[d]imidazole-6-carboxylic acid]: the “crystal form change on heating” value in data set [1] (heated to 110°C for 5 minutes) is recorded as “transforms into an amorphous form”.
For `O=C(O)c1ccc2nc(CN3CCC(c4cccc(OCc5ccc(C6COC6)cc5F)n4)CC3)n(C[C@@H]3CCO3)c2c1` [Crystal Form H, (S)-2-((4-(6-((2-fluoro-4-(oxetan-3-yl)benzyl)oxy)pyridin-2-yl)piperidin-1-yl)methyl)-1-(oxetan-2-ylmethyl)-1H-benzo[d]imidazole-6-carboxylic acid], the “crystal form change after drying” value in data set [8] (dried at 50°C for 2 hours) is recorded as “transforms into a weakly crystalline state; also recorded: showed a weak crystalline state”.
Regarding `O=C(O)c1ccc2nc(CN3CCC(c4cccc(OCc5ccc(C6COC6)cc5F)n4)CC3)n(C[C@@H]3CCO3)c2c1` [Crystal Form J, (S)-2-((4-(6-((2-fluoro-4-(oxetan-3-yl)benzyl)oxy)pyridin-2-yl)piperidin-1-yl)methyl)-1-(oxetan-2-ylmethyl)-1H-benzo[d]imidazole-6-carboxylic acid], in data set [1] (setting [10]), the “crystal form change on heating” value is “transforms into an amorphous form”.
Consider `O=C(O)c1ccc2nc(CN3CCC(c4cccc(OCc5ccc(C6COC6)cc5F)n4)CC3)n(C[C@@H]3CCO3)c2c1` [Crystal Form B, (S)-2-((4-(6-((2-fluoro-4-(oxetan-3-yl)benzyl)oxy)pyridin-2-yl)piperidin-1-yl)methyl)-1-(oxetan-2-ylmethyl)-1H-benzo[d]imidazole-6-carboxylic acid], for which, in data set [8] (dried at 50°C for 3 hours), the “crystal form change after drying” value was “transforms into an amorphous form; also recorded: convert into an amorphous form”.
For `O=C(O)c1ccc2nc(CN3CCC(c4cccc(OCc5ccc(C6COC6)cc5F)n4)CC3)n(C[C@@H]3CCO3)c2c1` [Crystal Form L, (S)-2-((4-(6-((2-fluoro-4-(oxetan-3-yl)benzyl)oxy)pyridin-2-yl)piperidin-1-yl)methyl)-1-(oxetan-2-ylmethyl)-1H-benzo[d]imidazole-6-carboxylic acid], the “crystal form change on heating” value in data set [1] (setting [10]) is listed as “transforms into an amorphous form”.
On to `O=C(O)c1ccc2nc(CN3CCC(c4cccc(OCc5ccc(C6COC6)cc5F)n4)CC3)n(C[C@@H]3CCO3)c2c1` [Crystal Form F, (S)-2-((4-(6-((2-fluoro-4-(oxetan-3-yl)benzyl)oxy)pyridin-2-yl)piperidin-1-yl)methyl)-1-(oxetan-2-ylmethyl)-1H-benzo[d]imidazole-6-carboxylic acid], for which the “crystal form change after storage” value in [8] (sealed conditions at room temperature for 21 days) was “transforms into Crystal Form D; also recorded: transformed into stable Crystal Form D”.
On to `O=C(O)c1ccc2nc(CN3CCC(c4cccc(OCc5ccc(C6COC6)cc5F)n4)CC3)n(C[C@@H]3CCO3)c2c1` [Crystal Form D, (S)-2-((4-(6-((2-fluoro-4-(oxetan-3-yl)benzyl)oxy)pyridin-2-yl)piperidin-1-yl)methyl)-1-(oxetan-2-ylmethyl)-1H-benzo[d]imidazole-6-carboxylic acid], for which the “crystal form change on heating” value in data set [1] (setting [10]) is on record as “converts into an amorphous form”.
As to `O=C(O)c1ccc2nc(CN3CCC(c4cccc(OCc5ccc(C6COC6)cc5F)n4)CC3)n(C[C@@H]3CCO3)c2c1` [Crystal Form O, (S)-2-((4-(6-((2-fluoro-4-(oxetan-3-yl)benzyl)oxy)pyridin-2-yl)piperidin-1-yl)methyl)-1-(oxetan-2-ylmethyl)-1H-benzo[d]imidazole-6-carboxylic acid], in data set [1] (setting [10]), the “crystal form change on heating” value is “transforms into an amorphous form”.
`O=C(O)c1ccc2nc(CN3CCC(c4cccc(OCc5ccc(C6COC6)cc5F)n4)CC3)n(C[C@@H]3CCO3)c2c1` [Crystal Form K, (S)-2-((4-(6-((2-fluoro-4-(oxetan-3-yl)benzyl)oxy)pyridin-2-yl)piperidin-1-yl)methyl)-1-(oxetan-2-ylmethyl)-1H-benzo[d]imidazole-6-carboxylic acid]: in [1] (heated to 110 °C for 10 minutes), the “crystal form change on heating” value is reported as “transforms into an amorphous form”.
On to `O=C(O)c1ccc2nc(CN3CCC(c4cccc(OCc5ccc(C6COC6)cc5F)n4)CC3)n(C[C@@H]3CCO3)c2c1` [Crystal Form P, (S)-2-((4-(6-((2-fluoro-4-(oxetan-3-yl)benzyl)oxy)pyridin-2-yl)piperidin-1-yl)methyl)-1-(oxetan-2-ylmethyl)-1H-benzo[d]imidazole-6-carboxylic acid], for which, in data set [8] (dried at 50°C for 3.5 hours), the “crystal form change after drying” value was “transforms into an amorphous form; also recorded: convert into an amorphous form”.
